Data taken from patent US9062033B2, “Chemical compounds” (Rottapharm Biotech S.r.l., priority 2011, dated 2015).

How the values were obtained:
human OX2 receptors = molecular target: T1, human OX2 receptors (Homo sapiens, UniProt O43614); assay: Antagonistic activity against human OX2 receptor, [Ca2+]i fluorimetry (Fluo-4NW) in transfected HEK-293 cells activated with orexin-B; type: cell-based; settings: for Kb: HEK-293 cells transfected with human recombinant OX2, orexin-B 10 nM, pKb = co-logarithm of apparent dissociation constant, modified Cheng Prusoff
T1 construct: expressed in transfected cells; host or cells: HEK-293 cells
T1 sequence (O43614 1-444): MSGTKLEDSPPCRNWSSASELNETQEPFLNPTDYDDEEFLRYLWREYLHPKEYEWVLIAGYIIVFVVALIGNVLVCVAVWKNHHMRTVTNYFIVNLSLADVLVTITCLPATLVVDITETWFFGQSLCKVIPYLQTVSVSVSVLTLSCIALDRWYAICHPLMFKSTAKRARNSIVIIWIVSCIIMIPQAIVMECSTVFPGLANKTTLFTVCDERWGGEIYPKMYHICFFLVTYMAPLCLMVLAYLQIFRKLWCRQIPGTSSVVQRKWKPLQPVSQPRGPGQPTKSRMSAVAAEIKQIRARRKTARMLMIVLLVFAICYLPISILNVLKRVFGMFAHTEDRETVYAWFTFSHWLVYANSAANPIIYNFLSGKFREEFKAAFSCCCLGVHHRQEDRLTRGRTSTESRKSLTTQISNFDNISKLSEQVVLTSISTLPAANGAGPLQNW
Procedure: (§1) In a typical experiment, the antagonistic activity against human OX1 and OX2 receptors is determined by using CHO e HEK-293 cells transfected with human recombinant OX1 and OX2 receptors respectively, seeded at density of 2 and 3×10^4 cells/well respectively in a 96 fluorimetry well plate. Thus the plate was loaded with the calcium dye (Fluo-4NW/probenecid in HBSS, Hepes 20 mM, pH 7.4; Invitrogen) at 37° C. for 60 min. Afterward the temperature was equilibrated at 22° C. for 15 min and the [Ca2+]i measured directly on the plate by using a fluorescent plate reader (CellLux Perkin Elmer).
(§2) Invention compounds were dissolved in DMSO, diluted in HBSS (DMSO, 0.3% final) and added to the wells. After 5 min CHO cells were activated with orexin-A, 3 nM while HEK-293 cells were activated with orexin-B, 10 nM.
(§3) The compounds, dissolved in DMSO and diluted in the medium (DMSO, 0.3% final), have been analysed in the 1 nM-1 μM concentration range (every concentration in duplicate). The antagonistic activity has been expressed as pKb (co-logarithm of the apparent dissociation constant calculated by using the modified Cheng Prusoff equation).
(§4) The results are expressed as percent of control specific […] response ((measured specific response/control specific agonist response)×100) obtained in the presence of the test compounds.
(§5) The IC50 values (concentration causing a half-maximal inhibition of the control specific agonist response) were determinated by non-linear regression analysis of the concentration curves generated with mean replicate values using hill equation curve fitting. The IC50 values are obtained by the arithmetical mean of at least two experiments. Compounds of the following example tested according to this example gave pKbs as follows: […]

human OX1 receptors = molecular target: T2, human OX1 receptors (Homo sapiens, UniProt O43613); assay: Antagonistic activity against human OX1 receptor, [Ca2+]i fluorimetry (Fluo-4NW) in transfected CHO cells activated with orexin-A; type: cell-based; settings: for Kb: CHO cells transfected with human recombinant OX1, orexin-A 3 nM, pKb = co-logarithm of apparent dissociation constant, modified Cheng Prusoff
T2 construct: expressed in transfected cells; host or cells: CHO cells
T2 sequence (O43613 1-425): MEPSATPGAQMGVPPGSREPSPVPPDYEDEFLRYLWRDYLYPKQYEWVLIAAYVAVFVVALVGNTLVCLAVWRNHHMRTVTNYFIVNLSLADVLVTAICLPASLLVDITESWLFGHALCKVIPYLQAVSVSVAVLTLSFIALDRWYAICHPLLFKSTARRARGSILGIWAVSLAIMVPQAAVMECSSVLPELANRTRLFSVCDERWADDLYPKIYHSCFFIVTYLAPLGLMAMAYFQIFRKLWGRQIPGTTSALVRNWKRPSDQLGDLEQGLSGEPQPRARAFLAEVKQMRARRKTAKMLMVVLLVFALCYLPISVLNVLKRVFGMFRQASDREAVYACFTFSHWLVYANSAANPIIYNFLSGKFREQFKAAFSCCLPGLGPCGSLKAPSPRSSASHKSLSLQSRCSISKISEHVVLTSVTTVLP
Procedure: as §1, §2, §3, §4, §5

[1] = comparison table with compound of WO2011006960

Row | Compound | Kb (human OX2 receptors) [nM] | Kb (human OX1 receptors) [nM] | pKb OX2 (human OX2 receptors; [1]) | pKb OX1 (human OX1 receptors; [1])
1 | Cc1ccc(-c2ncccn2)c(C(=O)N2CC3(CC3)C[C@H]2CNc2cnc(C(F)(F)F)cn2)n1 [Compound 3h, (S)-(6-methyl-3-(pyrimidin-2-yl)pyridin-2-yl)(6-(((5-(trifluoromethyl)pyrazin-2-yl)amino)methyl)-5-azaspiro[2.4]heptan-5-yl)methanone] | 39.8 | 6.31 |  | 
2 | O=C(c1nc(C2CC2)ccc1-c1ccccc1)N1CC2(CC2)C[C@H]1CNc1ccc(C(F)(F)F)cn1 [Compound 3r, (S)-(6-cyclopropyl-3-phenylpyridin-2-yl)(6-(((5-(trifluoromethyl)pyridin-2-yl)amino)methyl)-5-azaspiro[2.4]heptan-5-yl)methanone] | 12.6 | 2.51 |  | 
3 | Cc1ccc(-c2ncccn2)c(C(=O)N2CC3(CC3)C[C@H]2CNc2nccc3ncccc23)n1 [Compound 3p, (S)-(6-(((1,6-naphthyridin-5-yl)amino)methyl)-5-azaspiro[2.4]heptan-5-yl)(6-methyl-3-(pyrimidin-2-yl)pyridin-2-yl)methanone] | 25.1 | 126 |  | 
4 | Cc1ccc(-n2ccc(C)n2)c(C(=O)N2CC3(CC3)C[C@H]2CNc2ccc(C(F)(F)F)cn2)n1 [Compound 3j, (S)-(6-methyl-3-(3-methyl-1H-pyrazol-1-yl)pyridin-2-yl)(6-(((5-(trifluoromethyl)pyridin-2-yl)amino)-methyl)-5-azaspiro[2.4]heptan-5-yl)methanone] | 15.8 | 1.26 |  | 
5 | Cc1ccc(-c2ccccc2)c(C(=O)N2CC3(CC3)C[C@H]2CNc2ccc(C(F)(F)F)cn2)n1 [Compound 3b, (S)-(6-methyl-3-phenylpyridin-2-yl)(6-(((5-(trifluoromethyl)pyridin-2-yl)amino)methyl)-5-azaspiro[2.4]heptan-5-yl)methanone] | 10 | 2.51 |  | 
6 | Cc1nc(C(=O)N2CC3(CC3)C[C@H]2CNc2ccc(C(F)(F)F)cn2)c(-c2ccccc2)s1 [Compound 2d, (S)-(2-methyl-5-phenylthiazol-4-yl)(6-(((5-(trifluoromethyl)pyridin-2-yl)amino)methyl)-5-azaspiro[2.4]heptan-5-yl)methanone] | 20 | 3.98 |  | 
7 | Cc1ccc(OCc2ccc(F)cc2)c(C(=O)N2CC3(CC3)C[C@H]2CNc2ccc(C(F)(F)F)cn2)n1 [Compound 3m, (S)-(3((4-fluorobenzyl)oxy)-6-methylpyridin-2-yl)(6-(((5-(trifluoromethyl)pyridin-2-yl)amino)methyl)-5-azaspiro[2.4]heptan-5-yl)methanone] | 15.8 | 39.8 |  | 
8 | O=C(c1cc(F)ccc1-c1ncccn1)N1CC2(CC2)C[C@H]1CNc1cc(C(F)(F)F)ccn1 [Compound 1k, (S)-(5-fluoro-2-(pyrimidin-2-yl)phenyl)(6-(((4-(trifluoromethyl)pyridin-2-yl)amino)methyl)-5-azaspiro[2.4]heptan-5-yl)methanone] | 7.94 | 50.1 |  | 
9 | Cc1cccc(C(=O)N2CC3(CC3)C[C@H]2CNc2ccc(C(F)(F)F)cn2)c1-c1ncccn1 [Compound 1c, (S)-(3-methyl-2-(pyrimidin-2-yl)phenyl)(6-(((5-(trifluoromethyl)pyridin-2-yl)amino)methyl)-5-azaspiro[2.4]heptan-5-yl)methanone] | 200 | 12.6 |  | 
10 | Cc1ccc(OCc2cc(F)cc(F)c2)c(C(=O)N2CC3(CC3)C[C@H]2CNc2ccc(C(F)(F)F)cn2)n1 [Compound 3o, (S)-(3-((3,5-difluorobenzyl)oxy)-6-methylpyridin-2-yl)(6-(((5-(trifluoromethyl)pyridin-2-yl)amino)methyl)-5-azaspiro[2.4]heptan-5-yl)methanone] | 5.01 | 6.31 |  | 
11 | Cc1ccc(-c2ncccn2)c(C(=O)N2CC3(CC3)C[C@H]2CNc2ncc(C(F)(F)F)cn2)c1 [Compound 1s, (S)-(5-methyl-2-(pyrimidin-2-yl)phenyl)(6-(((5-(trifluoromethyl)pyrimidin-2-yl)amino)methyl)-5-azaspiro[2.4]heptan-5-yl)methanone] | 100 | 25.1 |  | 
12 | Cc1ccc(-c2ncccn2)c(C(=O)N2CC3(CC3)C[C@H]2CNc2ccc(C(F)(F)F)cn2)n1 [Compound 3a, (S)-(6-methyl-3-(pyrimidin-2-yl)pyridin-2-yl)(6-(((5-(trifluoromethyl)pyridin-2-yl)amino)methyl)-5-azaspiro[2.4]heptan-5-yl)methanone] | 31.6 | 3.98 |  | 
13 | N#Cc1ccc(-c2ncccn2)c(C(=O)N2CC3(CC3)C[C@H]2CNc2ccc(C(F)(F)F)cn2)c1 [Compound E12, (S)-4-(pyrimidin-2-yl)-3-(6-(((5-(trifluoromethyl)-pyridin-2-yl)amino)methyl)-5-azaspiro[2.4]heptane-5-carbonyl)benzonitrile] | 7.94 | 10 |  | 
14 | Cc1cccc(NC[C@@H]2CC3(CC3)CN2C(=O)c2nc(C)sc2-c2ccccc2)n1 [Compound 2c, (S)-(2-methyl-5-phenylthiazol-4-yl)(6-(((6-methylpyridin-2-yl)amino)methyl)-5-azaspiro[2.4]heptan-5-yl)methanone] | 25.1 | 50.1 |  | 
15 | Cc1ccc(-c2ncccn2)c(C(=O)N2CC3(CC3)C[C@H]2CNc2cc(C(F)(F)F)c(Cl)cn2)c1 [Compound 1r, (S)-(6-(((5-chloro-4-(trifluoromethyl)pyridin-2-yl)amino)methyl)-5-azaspiro[2.4]heptan-5-yl)(5-methyl-2-(pyrimidin-2-yl)phenyl)methanone] | 10 | 6.31 |  | 
16 | O=C(c1cc(Cl)ccc1-c1ncccn1)N1CC2(CC2)C[C@H]1CNc1nccc(C(F)(F)F)n1 [Compound 1q] | 6.31 | 39.8 |  | 
17 | Cc1ccc(-c2ncccn2)c(C(=O)N2CC3(CC3)C[C@H]2CNc2ncc(C(F)(F)F)cc2F)n1 [Compound 3d, (S)-(6-(((3-fluoro-5-(trifluoromethyl)pyridin-2-yl)amino)methyl)-5-azaspiro[2.4]heptan-5-yl)(6-methyl-3-(pyrimidin-2-yl)pyridin-2-yl)methanone] | 10 | 3.98 |  | 
18 | Cc1ccc(-c2ncccn2)c(C(=O)N2CC3(CC3)C[C@H]2CNc2cc(C(F)(F)F)ccn2)c1 [Compound 1n, (S)-(5-methyl-2-(pyrimidin-2-yl)phenyl)(6-(((4-(trifluoromethyl)pyridin-2-yl)amino)methyl)-5-azaspiro[2.4]heptan-5-yl)methanone] | 15.8 | 50.1 | 7.8 | 7.3
19 | Cc1ccc(-c2ccc(C#N)cc2)c(C(=O)N2CC3(CC3)C[C@H]2CNc2ccc(C(F)(F)F)cn2)n1 [Compound E8, (S)-4-(6-methyl-2-(6-(((5-(trifluoromethyl)pyridin-2-yl)amino)methyl)-5-azaspiro[2.4]heptane-5-carbonyl)pyridin-3-yl)benzonitrile] | 31.6 | 20 |  | 
